GI50 and TGI data for 6 compounds are collected here from PubChem BioAssay (NCI).

Among the test systems are 786-0 renal; HCT-116 colon; HOP-92 NSCLC; LOX IMVI melanoma; MDA-MB-231 breast; MOLT-4 leukemia; NCI-H23 lung; SK-MEL-28 melanoma; SNB-75 CNS; UO-31 renal.
What all share (assay): DTP human tumour cell line panel, 48 h

Molecules are shown by their SMILES.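 Growth conditions: 96-well plates. Treatment: test compound, 48 hours, 5 concentrations. Analysis: linear interpolation between bracketing concentrations; unreached endpoints set to highest concentration. At the GI50, growth is halved. The concentration for full growth arrest is given as TGI.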 Bounds are passed on as bounds.

The term GI50 denotes the concentration that inhibits growth by half. A word on the TGI: it is the concentration at which net growth stops. High values mean less potent growth arrest, low ones more potent growth arrest. `C=CCOc1cccc(/C=C2\SC(=Nc3ccc(O)cc3)NC2=O)c1`: the GI50 in the assay on 786-0 renal was 1.13 µM; in the assay on HCT-116 colon it was 0.408 µM; in the assay with HOP-92 NSCLC it was 0.863 µM; in the assay with LOX IMVI melanoma it was 0.543 µM; in the assay on MDA-MB-231 breast it was 0.975 µM; with MOLT-4 leukemia, 0.523 µM. Moreover, the GI50 in the assay on NCI-H23 lung is 1.01 µM; in the assay on SK-MEL-28 melanoma, 2.47 µM; with SNB-75 CNS, 0.189 µM; with UO-31 renal, 0.832 µM. For the same compound, the TGI in the assay on 786-0 renal is 7.89 µM; in the assay with HCT-116 colon, 5.38 µM; in the assay with HOP-92 NSCLC it was 6.54 µM; in the assay with LOX IMVI melanoma, 12.7 µM; in the assay on MDA-MB-231 breast, 6.62 µM; in the assay with MOLT-4 leukemia, more than 23.8 µM. The TGI in the assay on NCI-H23 lung came out at 31.4 µM; in the assay on SK-MEL-28 melanoma, 31.2 µM; in the assay on SNB-75 CNS it was 0.668 µM; in the assay on UO-31 renal it was 2.51 µM.

On to `COc1ccc(-c2c3c(N)nc(-c4ccncc4)nc3nc3c2c(C)nn3-c2ccccc2)cc1`, for which the GI50 in the assay with 786-0 renal was 7.12 µM; in the assay on HCT-116 colon it was 2.46 µM; with HOP-92 NSCLC, 36.2 µM; in the assay on LOX IMVI melanoma, 10.1 µM; in the assay on MDA-MB-231 breast it was 3.71 µM; with MOLT-4 leukemia, 8.58 µM. The GI50 with NCI-H23 lung was 9.67 µM; in the assay on SK-MEL-28 melanoma it was 4.25 µM; in the assay with SNB-75 CNS it was 3.62 µM; with UO-31 renal, 50.7 µM. Also, the TGI in the assay with 786-0 renal is more than 100 µM; in the assay on HCT-116 colon it was 13.6 µM; in the assay with HOP-92 NSCLC it was more than 100 µM; in the assay on LOX IMVI melanoma it was more than 100 µM; with MDA-MB-231 breast it was 46.5 µM; with MOLT-4 leukemia it was more than 100 µM. Also, the total growth inhibition concentration (TGI) in the assay on NCI-H23 lung was more than 100 µM; in the assay with SK-MEL-28 melanoma, 40.5 µM; in the assay with SNB-75 CNS, 28.4 µM; with UO-31 renal, more than 100 µM.

Consider `COc1ccc(OC)c(/C=C2\SC(=S)NC2=O)c1`, for which the GI50 is 30.8 µM with 786-0 renal; 29.9 µM with HCT-116 colon; 16 µM with HOP-92 NSCLC; 26.6 µM with LOX IMVI melanoma; 14.2 µM in the assay on MDA-MB-231 breast; 44.8 µM in the assay with MOLT-4 leukemia. Further, the GI50 was 23.1 µM with NCI-H23 lung, 42.4 µM in the assay with SK-MEL-28 melanoma, 29.3 µM in the assay on SNB-75 CNS and 33.6 µM with UO-31 renal. Further, the TGI with 786-0 renal is more than 100 µM; with HCT-116 colon, more than 100 µM; in the assay on HOP-92 NSCLC it was 55.4 µM; in the assay with LOX IMVI melanoma, more than 100 µM; with MDA-MB-231 breast, 43.2 µM; in the assay on MOLT-4 leukemia it was more than 100 µM. Further, the TGI with NCI-H23 lung was 68.6 µM; in the assay on SK-MEL-28 melanoma, more than 100 µM; in the assay with SNB-75 CNS it was more than 100 µM; in the assay on UO-31 renal, more than 100 µM.

For the compound `COc1cccc(-n2ncc3c(N/N=C/c4ccc(C(=O)NCCN(C)C)cc4)ncnc32)c1`, the GI50 in the assay on 786-0 renal was 3.58 µM; in the assay on HCT-116 colon, 2.76 µM; in the assay with HOP-92 NSCLC, more than 25 µM; with LOX IMVI melanoma, 1.28 µM; in the assay with MDA-MB-231 breast, 3.4 µM; in the assay with MOLT-4 leukemia, 4.48 µM. The GI50 is 3.89 µM with NCI-H23 lung, 3.5 µM in the assay with SK-MEL-28 melanoma, 1.05 µM with SNB-75 CNS and 1.64 µM in the assay with UO-31 renal. The TGI with 786-0 renal is 8.14 µM; in the assay with HCT-116 colon it was 6.21 µM; in the assay on HOP-92 NSCLC, more than 25 µM; with LOX IMVI melanoma it was 5.62 µM; in the assay with MDA-MB-231 breast, 7.23 µM; with MOLT-4 leukemia, 11 µM. For the same compound, the TGI amounted to 8.29 µM in the assay on NCI-H23 lung, 7.28 µM in the assay with SK-MEL-28 melanoma, 5.13 µM with SNB-75 CNS and 5.88 µM in the assay with UO-31 renal.

For `Cn1cccc1-c1cc(-c2cccs2)nc(N)c1C#N`, the GI50 with 786-0 renal, in the assay on HCT-116 colon, in the assay on HOP-92 NSCLC, in the assay on LOX IMVI melanoma, with MDA-MB-231 breast and in the assay on MOLT-4 leukemia was more than 100 µM each time. For the same compound, the GI50 is more than 100 µM in the assay with NCI-H23 lung, more than 100 µM in the assay with SK-MEL-28 melanoma, 46 µM in the assay with SNB-75 CNS and more than 100 µM with UO-31 renal. Also, the TGI in the assay with 786-0 renal, with HCT-116 colon, in the assay with HOP-92 NSCLC, in the assay with LOX IMVI melanoma, in the assay with MDA-MB-231 breast and in the assay with MOLT-4 leukemia was more than 100 µM each time. The TGI with NCI-H23 lung, in the assay on SK-MEL-28 melanoma, in the assay on SNB-75 CNS and in the assay on UO-31 renal was more than 100 µM in each case.

With `CCCC(C)c1cc(Cc2cc(Cl)cc(Cl)c2O)c(O)c(Cc2cc(Cl)cc(Cl)c2O)c1` (stereo not given), the GI50 with 786-0 renal was 1.64 µM; with HCT-116 colon, 0.384 µM; in the assay with HOP-92 NSCLC, 0.128 µM; in the assay with LOX IMVI melanoma, 2.44 µM; in the assay on MDA-MB-231 breast, 1.24 µM; in the assay on MOLT-4 leukemia, 1.53 µM. The GI50 in the assay on NCI-H23 lung is 0.789 µM; with SK-MEL-28 melanoma, 1.19 µM; in the assay with SNB-75 CNS, 1.86 µM; with UO-31 renal, 2.52 µM. Besides, the TGI in the assay with 786-0 renal is 6.78 µM; with HCT-116 colon, 3.97 µM; in the assay on HOP-92 NSCLC it was 0.496 µM; in the assay with LOX IMVI melanoma it was 8.89 µM; in the assay with MDA-MB-231 breast, 4.19 µM; in the assay with MOLT-4 leukemia it was 4.83 µM. Also, the TGI came out at 9.64 µM with NCI-H23 lung, 10.1 µM with SK-MEL-28 melanoma, 7.7 µM with SNB-75 CNS and 10.2 µM in the assay on UO-31 renal.
